How the values were obtained:
Assay type in all cases: in vivo, Male Wistar Rats
[1] = tested on: High fat diet induced obesity model in rat; assay: High fat diet induced obesity model in rat: body weight; conditions: HFD-fed rats, end of 12 weeks, p.o., mean; for % increase in body weight: in comparison to normal control group; for Body weight: OEA 41, L-Valine 2, Pantethine 31, Orlistat 10 mg/kg
Experimental: (§1) Screening anti-obesity effect of synergistic combination or composition/formulation comprising OEA and other natural ingredients using High fat diet induced obesity model in rat. […] To maintain appropriate conditions, temperature and relative humidity were recorded three times daily. During complete experiment, animals were supplied with the standard certified rat pellet feed (manufactured by VRK Nutritional Solutions, Pune) and drinking water treated by the reverse osmosis ad libitum. […] In order to evaluate the anti-obesity effect, forty-eight (48) male rats were screened and divided into eight groups. For a comparative analysis, the groups were divided as follows: normal control, disease control, treatment groups with individual component, reference standard drug and test composition/formulation of the present invention. […] The animals under consideration were examined for a study period of 12 weeks. Animals in group (G1) were given normal pellet diet, wherein the other groups were on high fat diet. After completion of study for 12 weeks, each group was analyzed in terms of the body weight and other evaluating parameters such as serum biochemistry (triglyceride, total cholesterol and low density lipoprotein cholesterol (LDL), analysis of liver homogenates and histopathology of liver. Obesity is essentially due to an excessive accumulation of the fatty tissues which leads to many diseases, not limited to insulin resistance, diabetes, fatty liver disease, coronary artery disease, hypertension and polycystic ovary syndrome. In obese conditions, the level of total cholesterol, triglyceride and LDL-cholesterol reaches beyond the normal ranges in human beings. Similarly, high fat diet model in rat is universally accepted model to test the efficacy of the drug for the treatment of obesity. In the above experimental procedure, obesity was induced by administration of a high fat diet (HFD) for the period of 12 weeks. For comparison, the normal control group animals were given a normal pellet diet, whereas the remaining groups were fed with the HFD. As a routine experiment, all animals' body weights were observed on weekly basis. Further, various serum biochemistry parameters such as Triglyceride, total cholesterol and LDL-cholesterol were analyzed at the end of the 12-week treatment period. In this regard, at the end of study period, all animals were euthanized and the liver was isolated. The liver homogenate of each individual animal was prepared and subjected for determination of the level of total cholesterol and Triglyceride. Further, part of the liver was used for histopathological investigation purpose. The primary observation during the experiment was monitoring the body weight of animals. Though the animals were tested weekly for the change in the body weight, an average body weight was measured at the end of 12 weeks, and is tabulated in the Table 2.

[2] = tested on: High fat diet induced obesity model in rat; assay: High fat diet induced obesity model in rat: analysis of liver homogenates; conditions: liver homogenate, HFD-fed rats, 12 weeks, p.o.; for Total Cholesterol / Triglyceride: mean; for Total Cholesterol % Decrease / Triglyceride % Decrease: versus disease control
Experimental: as §1, with “purpose.” for “purpose. The primary observation during the experiment was monitoring the body weight of animals. Though the animals were tested weekly for the change in the body weight, an average body weight was measured at the end of 12 weeks, and is tabulated in the Table 2.”

[3] = tested on: High fat diet induced obesity model in rat; assay: High fat diet induced obesity model in rat: serum biochemistry; conditions: HFD-fed rats, 12 weeks, p.o.; for LDL / Total Cholesterol / Triglyceride: mean; for LDL % Decrease / Total Cholesterol % Decrease / Triglyceride % Decrease: versus disease control
Experimental: as §1, with “purpose.” for “purpose. The primary observation during the experiment was monitoring the body weight of animals. Though the animals were tested weekly for the change in the body weight, an average body weight was measured at the end of 12 weeks, and is tabulated in the Table 2.”

SMILES	% increase in body weight [1] [%]	Body weight [1] [gm]	Total Cholesterol [2] [mg/dL]	Triglyceride [2] [mg/dL]	Total Cholesterol % Decrease [2] [%]	Triglyceride % Decrease [2] [%]	LDL [3] [mg/dL]	Total Cholesterol [3] [mg/dL]	Triglyceride [3] [mg/dL]	LDL % Decrease [3] [%]	Total Cholesterol % Decrease [3] [%]	Triglyceride % Decrease [3] [%]
CC(C)[C@H](N)C(=O)O [L-Valine]	22.71	338.67	85.23	80.02	5.56	3.59	55.45	140.00	115.23	4.35	4.92	6.15
CCCCCCCC/C=C\CCCCCCCC(=O)NCCO [OEA, Oleoylethanolamide]	12.32	310.00	74.12	59.98	17.87	27.74	35.54	105.54	100.05	38.70	28.32	18.51
CCCCCCCCCCC[C@@H](C[C@@H]1OC(=O)[C@H]1CCCCCC)OC(=O)[C@H](CC(C)C)NC=O [Orlistat]	7.97	298.00	60.33	44.82	33.15	46.00	25.74	84.27	77.62	55.60	42.77	36.78

Reference: patent US10702487B2, “Pharmaceutical composition for prevention of diet induced obesity” (FRIMLINE PRIVATE LIMITED, priority 2017, dated 2020)
